21 compounds from the supplement of paper PMC10702517 can be followed below.

± gives the standard deviation.

A short description of series [1]: chemical recovery from spiked human plasma; higher = better extraction. The settings on record: pooled human plasma.
A short description of series [2]: chemical recovery by SPE of plasma after PDMS sampling; higher = better extraction. Particulars: pooled human plasma, extraction method: HLB SPE of plasma after PES.
Where [3] appears, read: extraction method: PES+SPE (3 d PDMS equilibration then HLB SPE).
Where [4] appears, read: extraction method: SPE only (HLB 96-well).
The mark [5] stands for this setting: extraction method: SPE only (HLB 96-well), PES comparison experiment.
Setting [6] is: extraction method: solvent precipitation (ACN + hexane).
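For chemical recovery by SPE of plasma after PDMS sampling in this document: over 400 spiked chemicals quantified by LC-HRMS or GC-HRMS via internal standard calibration, recovery relative to spike mix added to unspiked plasma extract to correct matrix effects.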

With `CC(C)(Oc1ccc(Cl)cc1)C(=O)O` [Clofibric acid], the chemical recovery is 44.8 ± 1.8% in series [1] (setting [3]), 44.7 ± 2.7% in series [1] (setting [4]), 61 ± 5.4% in series [1] (setting [5]) and 66.6 ± 7.9% in series [1] (setting [6]). For the same compound, the results for the “chemical recovery by SPE of plasma” value in series [2] (equilibration time (d): 1), in series [2] (equilibration time (d): 3) and in series [2] (equilibration time (d): 6) were 53.1 ± 9.5%, 58.7 ± 6.2% and 51.5 ± 4.8%, respectively.
In the case of `CC[N+](CC)(CC(=O)Nc1c(C)cccc1C)Cc1ccccc1` [Denatonium], the chemical recovery in series [1] (setting [3]) came to 50.8 ± 2.9%; in series [1] (setting [4]) it was 38.4 ± 3.9%; in series [1] (setting [5]) it was 49.9 ± 3.3%; in series [1] (setting [6]) it was 71.9 ± 3.3%. The “chemical recovery by SPE of plasma” value in series [2] (equilibration time (d): 1) stood at 56.4 ± 6.3%; in series [2] (equilibration time (d): 3), 57.1 ± 3.3%; in series [2] (equilibration time (d): 6), 54.9 ± 6.9%.
On to `Cc1cccc(C)c1NC(=O)CS(=O)(=O)O` [Dimethachlor CGA369-873], for which the chemical recovery turned out to be 42.4 ± 2.5% in series [1] (setting [3]), 40.3 ± 3.8% in series [1] (setting [4]), 45.2 ± 5% in series [1] (setting [5]) and 79.6 ± 8.1% in series [1] (setting [6]). Further, the “chemical recovery by SPE of plasma” value was 23.6 ± 2.8% in series [2] (equilibration time (d): 3) and 28.2 ± 8.7% in series [2] (equilibration time (d): 6).
In series [1] (setting [5]), `COCC(C)N(C(=O)CS(=O)(=O)O)c1c(C)csc1C` (stereo not drawn) [Dimethenamid ESA] came in with a chemical recovery of 49.6 ± 3.4%. Further, the “chemical recovery by SPE of plasma” value is 45.5 ± 8.5% in series [2] (equilibration time (d): 1), 51.4 ± 4.4% in series [2] (equilibration time (d): 3) and 45.4 ± 4.1% in series [2] (equilibration time (d): 6).
For the compound `COCC(C)N(C(=O)C(=O)O)c1c(C)csc1C` (stereo not drawn) [Dimethenamid OA], the chemical recovery in series [1] (setting [5]) stood at 51.7 ± 4.2%. For the same compound, the entries for the “chemical recovery by SPE of plasma” value in series [2] (equilibration time (d): 1), in series [2] (equilibration time (d): 3) and in series [2] (equilibration time (d): 6) were 52.2 ± 8.1%, 58.9 ± 3.8% and 51.8 ± 2.6%, respectively.
Regarding `COC(=O)c1cc(C(=O)OC)cc(S(=O)(=O)O)c1` [Dimethyl-5-sulfoisophthalate], the chemical recovery in series [1] (setting [3]) stood at 44.6 ± 2.1%; in series [1] (setting [4]), 45.3 ± 3%; in series [1] (setting [5]) it was 52.4 ± 4.3%; in series [1] (setting [6]), 46.7 ± 3.3%. Further, the “chemical recovery by SPE of plasma” value worked out at 49.8 ± 6.7% in series [2] (equilibration time (d): 1), 54.2 ± 3.9% in series [2] (equilibration time (d): 3) and 49.3 ± 4% in series [2] (equilibration time (d): 6).
On to `O=P(O)(Oc1ccccc1)Oc1ccccc1` [Diphenylphosphate], for which the chemical recovery in series [1] (setting [4]) came to 44.6 ± 4.8%; in series [1] (setting [5]) it was 47 ± 7%. In addition, the “chemical recovery by SPE of plasma” value in series [2] (equilibration time (d): 1) was found to be 46.4 ± 13%; in series [2] (equilibration time (d): 3), 56 ± 6.6%; in series [2] (equilibration time (d): 6), 49.8 ± 8.2%.
As to `O=c1[nH]c2ccccc2n1CCCN1CCC(n2c(=O)[nH]c3cc(Cl)ccc32)CC1` [Domperidone], in series [1] (setting [5]), the chemical recovery was found to be 44.6 ± 4.9%. Besides, the “chemical recovery by SPE of plasma” value in series [2] (equilibration time (d): 1) is 44.4 ± 5.1%; in series [2] (equilibration time (d): 3), 46.3 ± 3.7%; in series [2] (equilibration time (d): 6), 42.3 ± 4.4%.
Consider `c1ccc2c(c1)-c1ccc3ccc4cccc5cc-2c1c3c45` [Indeno(1,2,3-cd)pyrene], for which the “chemical recovery by SPE of plasma” value in series [2] (equilibration time (d): 1) came out at 1.57 ± 0.15%; in series [2] (equilibration time (d): 3), 1.3 ± 0.43%; in series [2] (equilibration time (d): 6) it was 1.16 ± 0.33%.
As for `CC(C)(C)c1cc(-n2nc3ccccc3n2)c(O)c(C(C)(C)C)c1` [UV-320], in series [1] (setting [4]), the chemical recovery amounted to 3.34 ± 1%.
As to `CC(C)(C)c1cc(-n2nc3ccc(Cl)cc3n2)c(O)c(C(C)(C)C)c1` [UV-327], in series [1] (setting [4]), the chemical recovery is 1.82 ± 1.6%.
In the case of `CCC(C)(C)c1cc(-n2nc3ccccc3n2)c(O)c(C(C)(C)CC)c1` [UV-328], the chemical recovery in series [1] (setting [4]) stood at 1.74 ± 0.56%.
Same read-out and setting: as for `CC(C)(C)CC(C)(C)c1cc(-n2nc3ccccc3n2)c(O)c(C(C)(C)c2ccccc2)c1` [UV-928], the figure is 0.72 ± 0.29%.
As to `CCCCCCCCOc1ccc(-c2nc(-c3ccc(C)cc3C)nc(-c3ccc(C)cc3C)n2)c(O)c1` [UV-1164], the chemical recovery in series [1] (setting [4]) was determined as 0.287 ± 0.085%.
For `CCCCCCOC(=O)c1ccccc1C(=O)c1ccc(N(CC)CC)cc1O` [Uvinul-A-Plus], the chemical recovery in series [1] (setting [4]) was found to be 26.5 ± 9.6%.
`CN(C)CC(c1ccc(O)cc1)C1(O)CCCCC1` (stereo not drawn) [Venlafaxine-O-desmethyl]: the chemical recovery in series [1] (setting [3]) amounted to 31.3 ± 3.1%; in series [1] (setting [4]) it was 31.2 ± 2.6%.
As for `O=S1OC[C@@H]2[C@H](CO1)[C@@]1(Cl)C(Cl)=C(Cl)[C@]2(Cl)C1(Cl)Cl` (stereo partly drawn) [alpha-Endosulfan], the chemical recovery amounted to 0.649 ± 0.17% in series [1] (setting [4]) and 13.6 ± 2.6% in series [1] (setting [6]).
`Cl[C@H]1[C@H](Cl)[C@@H](Cl)[C@H](Cl)[C@@H](Cl)[C@H]1Cl` [delta-HCH] showed a chemical recovery in series [1] (setting [5]) of 40.6 ± 13%.
For `COc1cc(-c2ccc(N)c(OC)c2)ccc1N` [o-Dianisidine], the chemical recovery in series [1] (setting [3]) is 0.374 ± 0.16%; in series [1] (setting [4]), 15.5 ± 3%; in series [1] (setting [6]), 46.7 ± 7.3%.
In series [1] (setting [4]), `Cc1ccc(OS(=O)(=O)O)cc1` [p-Tolylsulfate] gave a chemical recovery of 91 ± 13%.
Still for that read-out and setting: as for `C/C(=C\c1ccccc1)c1ccccc1` [trans-a-Methylstilben], the figure is 14.3 ± 7.5%.
